According to patent publication US20050153395A1, “Unique integrin binding site in connective tissue growth factor (CTGF)” (CHILDREN'S HOSPITAL INC., priority 2003, published 2005):

Assays:
β3 integrin = biological target: T1, β3 integrin (Homo sapiens, UniProt P05106); details: Gould et al. 1990; cited from earlier work
T1 sequence (P05106 27-788): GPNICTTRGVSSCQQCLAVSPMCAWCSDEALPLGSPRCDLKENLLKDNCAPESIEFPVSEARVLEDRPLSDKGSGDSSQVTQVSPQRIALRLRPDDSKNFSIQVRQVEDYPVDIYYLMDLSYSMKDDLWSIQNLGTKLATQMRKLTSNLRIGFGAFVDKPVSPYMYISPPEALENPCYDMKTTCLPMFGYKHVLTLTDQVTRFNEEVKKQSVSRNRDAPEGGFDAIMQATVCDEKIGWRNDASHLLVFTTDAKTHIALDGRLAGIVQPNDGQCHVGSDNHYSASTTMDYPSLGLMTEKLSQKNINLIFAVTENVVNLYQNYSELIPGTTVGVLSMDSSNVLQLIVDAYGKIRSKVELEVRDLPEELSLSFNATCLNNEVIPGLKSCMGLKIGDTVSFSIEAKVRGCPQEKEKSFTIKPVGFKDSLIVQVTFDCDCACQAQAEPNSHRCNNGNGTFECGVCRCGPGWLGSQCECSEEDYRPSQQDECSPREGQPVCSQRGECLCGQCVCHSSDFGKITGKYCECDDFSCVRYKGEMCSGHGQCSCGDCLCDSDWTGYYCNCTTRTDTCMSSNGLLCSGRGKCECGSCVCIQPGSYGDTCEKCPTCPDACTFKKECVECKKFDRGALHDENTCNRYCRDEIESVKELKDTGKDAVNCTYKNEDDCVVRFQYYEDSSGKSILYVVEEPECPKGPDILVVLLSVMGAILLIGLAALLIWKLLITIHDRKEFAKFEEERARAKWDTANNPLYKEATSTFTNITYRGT

[1] = test system: hepatic stellate cells (HSC); assay: HSC adhesion assay on coated wells (CyQUANT fluorescence); type: cell-based, rat
Description: CTGF4 is known to be expressed in hepatic stellate cells (HSC) and to induce proliferation and extracellular matrix (ECM) production in these cells. (Williams et al., J Hepatol 32, 754-761, 2000; Paradis et al., Lab Invest 82, 767-774, 2002). The following experiments were carried out to determine if HSCs adhere to CTGF. HSCs were isolated from normal Sprague-Dowley rate by sequential perfusion with pronase/collagenase and purified by density gradient separation as described in Vyas et al. (Gastroenterology 109: 889-898, 1995).
The cells were subsequently detached using 1 mM EDTA PBS (137 mM NaCl, 2.7 mM KCl, 4.3 mM Na2HPO4, 1.4 mM KH2PO4, pH 7.3), washed twice in DMEM and resuspended in serum free medium containing 0.5% BSA. The cells-were plated (1.25×10^4 cells/well) in a 96 well plate coated with one of the following: 2 μg/ml CTGF isoform (CTGF1-4, CTGF3-4, CTGF4), 1 μg/ml laminin, or 4 μg/ml vitronectin and incubated for 20 minutes at 37° C. Subsequently the cells were washed with PBS and the adherent cells were fixed with 10% formalin and stained with CyQUANT GR dye/cell lysis buffer (Molecular Probes , Eugene, Oreg.) according to the manufacturer's instructions. The number of cells that adhered to CTGF isoforms or ECM protein was quantified by measuring the sample fluorescence intensity at Ex/Em: 480/520 nm using a micro-plate reader (CytoFluor™ 2350).
To determine if the CTGF-mediated HSC adhesion was carried out through integrin receptors, the experiment described above were carried out in the presence and absence of 10 mM EDTA. […] It is widely believed that Mn^2+ induces conformational shifts that mimic the physiological activation of β1 and β3 integrins (Roberts et al., J Biol Chem 278: 1975-1985, 2003, van der Pauw et al., J Periodontal Res 37: 317-323, 2002) as Mn^2+-induced activation leads to enhanced ligand-binding affinity and cell adhesion (Mould et al., J Biol Chem 277: 19800-19805, 2002, Loftus & Liddington J Clin Invest 100: S77-81, 1997, Lin et al., J Biol Chem 272: 14236-14243, […]).
Synthetic peptides GRGDsp (1 mM), GRGEsp (1 mM), Echistatin (2 μM) or vehicle buffer alone were added to the, HSC culture medium 30 minutes prior to plating.
In addition, adhesion assays as described in Example 1 were carried out in CTGF4 coated plates in the presence and absence of monoclonal antibody specific for αvβ3 (LM609).

integrin αvβ3 = integrin αvβ3 (Homo sapiens, UniProt P05106+P06756); assay: Integrin αvβ3-CTGF immunoprecipitation / immunoblot; type: binding; details: 20 μM Echistatin
Description: To further characterize the interaction between CTGF4 and integrin αvβ3, each CTGF isoforms (CTGF1-4, CTGF3-4, CTGF4) was individually mixed with αvβ3, followed by immunoprecipitation with rabbit anti-CTGF polyclonal antibody and immunoblotting with anti-αvβ3. Human integrin αvβ3 (2 μg) and each individual CTGF isoform (4 μg) were incubated in 1 ml NP40 buffer with rocking at 4° C. for 2 hours. As a control, 20 μM Echistatin was added prior to adding the CTGF isoforms. Subsequently, polyclonal rabbit anti-CTGF antibody (1:100) or mouse IgG was added to the complex and the mixtures were further incubated at 4° C. for 16 hours. After incubation, 25 ,μl of Protein A was added to each mixture for 1 hour. The samples were separated on 8% SDS-polyacrylamide gels, and transferred onto nitrocellulose. The membrane was then incubated with anti-human αvβ3 monoclonal antibody (1:1000) diluted in TBS/Tween 20 (0.05%) containing 5% non-fat milk. Integrin αvβ3 bound similarly to all CTGF isoforms.

Sequence of integrin αvβ3 (P06756 31-889 limits assumed, one chain of several): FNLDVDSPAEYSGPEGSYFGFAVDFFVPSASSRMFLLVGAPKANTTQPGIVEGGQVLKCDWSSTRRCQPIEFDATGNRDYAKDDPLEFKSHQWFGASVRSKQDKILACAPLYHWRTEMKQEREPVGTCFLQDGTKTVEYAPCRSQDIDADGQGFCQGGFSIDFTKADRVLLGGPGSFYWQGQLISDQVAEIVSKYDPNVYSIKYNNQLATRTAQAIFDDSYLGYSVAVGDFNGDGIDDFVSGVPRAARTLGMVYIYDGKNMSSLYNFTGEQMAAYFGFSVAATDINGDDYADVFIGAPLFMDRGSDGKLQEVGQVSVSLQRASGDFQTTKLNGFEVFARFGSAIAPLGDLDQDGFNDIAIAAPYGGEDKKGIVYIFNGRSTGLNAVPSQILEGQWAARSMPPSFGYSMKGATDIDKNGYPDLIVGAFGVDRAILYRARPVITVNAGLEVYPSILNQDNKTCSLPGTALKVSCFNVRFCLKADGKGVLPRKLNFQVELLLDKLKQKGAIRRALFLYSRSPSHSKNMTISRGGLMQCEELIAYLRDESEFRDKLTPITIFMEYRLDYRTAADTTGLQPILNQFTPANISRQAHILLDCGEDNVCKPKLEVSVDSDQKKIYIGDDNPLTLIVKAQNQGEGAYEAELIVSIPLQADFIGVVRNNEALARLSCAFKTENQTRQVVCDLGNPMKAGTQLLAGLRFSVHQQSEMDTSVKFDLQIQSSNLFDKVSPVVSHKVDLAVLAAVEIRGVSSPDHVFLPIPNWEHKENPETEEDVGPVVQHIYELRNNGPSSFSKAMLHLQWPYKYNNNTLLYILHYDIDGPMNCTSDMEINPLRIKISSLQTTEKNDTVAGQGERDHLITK
Sequence of integrin αvβ3 (P06756 891-1048 partner limits assumed, one chain of several): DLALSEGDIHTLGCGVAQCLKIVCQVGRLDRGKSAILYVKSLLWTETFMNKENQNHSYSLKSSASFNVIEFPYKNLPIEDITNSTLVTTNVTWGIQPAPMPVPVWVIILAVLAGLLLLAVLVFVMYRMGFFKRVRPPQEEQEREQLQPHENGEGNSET

Echistatin (QCESGPCCRNCKFLKEGTICKRARGDDMDDYCNGKTCDCPRNPHKGPAT)
effectiveness relative to short RGDX peptides (β3 integrin): at least 500 times | inhibition of HSC adherence to CTGF[257-272] ([1]; peptide-coated wells, heparin 2 μg/ml): 40% | inhibition of CTGF1-4-mediated HSC adhesion ([1]; wells coated 2 μg/ml CTGF1-4, EDTA 10 mM, GRGDsp 1 mM, Echistatin 2 μM): 58% | inhibition of CTGF3-4-mediated HSC adhesion ([1]; wells coated 2 μg/ml CTGF3-4, EDTA 10 mM, GRGDsp 1 mM, Echistatin 2 μM): 62% | inhibition of CTGF4-mediated HSC adhesion ([1]; wells coated 2 μg/ml CTGF4, EDTA 10 mM, GRGDsp 1 mM, Echistatin 2 μM, antibody/IgG 25 μg/ml, heparin 2 μg/ml): 69% | competition for the binding of αvβ3 with CTGF4 (integrin αvβ3): fully competed
